Experimental data: PubChem BioAssay AID248 (DTP/NCI, 2004)
“And” between values parts separate entries of the source, which are not always exact repeats. Equal values may be shown once. Toxic doses and inconclusive results are not listed.

Test system: L1210 leukemia ip in BDF1 mice, survival T/C
Assay: NCI In Vivo Anticancer Drug Screen. Data for tumor model L1210 Leukemia (intraperitoneal) in B6D2F1 (BDF1) mice
Conditions: endpoint: mean survival time, higher = longer survival
How it was run: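 Antitumor effect is assessed in tumor-bearing animals. Survival in the compound arm is compared with a vehicle-dosed control arm and expressed as their quotient.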

[1] = dose: 100.0 mg/kg/injection, schedule: Q01DX001 (ip), vehicle: Klucel (hydroxypropylcellulose) (HPC)
[2] = dose: 200.0 mg/kg/injection, schedule: Q01DX001 (ip), vehicle: Klucel (hydroxypropylcellulose) (HPC)
[3] = dose: 100.0 mg/kg/injection, schedule: Q01DX009 (ip), vehicle: Klucel (hydroxypropylcellulose) (HPC)
[4] = dose: 200.0 mg/kg/injection, schedule: Q01DX009 (ip), vehicle: Klucel (hydroxypropylcellulose) (HPC)
[5] = dose: 100.0 mg/kg/injection, schedule: Q01DX009 (ip), vehicle: saline
[6] = dose: 100.0 mg/kg/injection, schedule: Q04DX003 (ip), vehicle: saline
[7] = dose: 200.0 mg/kg/injection, schedule: Q01DX009 (ip), vehicle: saline
[8] = dose: 200.0 mg/kg/injection, schedule: Q04DX003 (ip), vehicle: saline
[9] = dose: 400.0 mg/kg/injection, schedule: Q01DX009 (ip), vehicle: saline
[10] = dose: 400.0 mg/kg/injection, schedule: Q04DX003 (ip), vehicle: saline
[11] = dose: 100.0 mg/kg/injection, schedule: Q04DX002 (ip), vehicle: Klucel (hydroxypropylcellulose) (HPC)
[12] = dose: 200.0 mg/kg/injection, schedule: Q04DX002 (ip), vehicle: Klucel (hydroxypropylcellulose) (HPC)
[13] = dose: 400.0 mg/kg/injection, schedule: Q04DX002 (ip), vehicle: Klucel (hydroxypropylcellulose) (HPC)
[14] = dose: 50.0 mg/kg/injection, schedule: Q01DX001 (ip), vehicle: saline
[15] = dose: 100.0 mg/kg/injection, schedule: Q01DX001 (ip), vehicle: saline
[16] = dose: 200.0 mg/kg/injection, schedule: Q01DX001 (ip), vehicle: saline
[17] = dose: 400.0 mg/kg/injection, schedule: Q01DX001 (ip), vehicle: saline
[18] = dose: 100.0 mg/kg/injection, schedule: Q04DX003 (ip), vehicle: Klucel (hydroxypropylcellulose) (HPC)
[19] = dose: 200.0 mg/kg/injection, schedule: Q04DX003 (ip), vehicle: Klucel (hydroxypropylcellulose) (HPC)
[20] = dose: 400.0 mg/kg/injection, schedule: Q04DX003 (ip), vehicle: Klucel (hydroxypropylcellulose) (HPC)

CCC(CO)NC(=O)/C=C/c1ccccc1Cl (stereo not drawn)
T/C (dose: 100.0 mg/kg/injection, schedule: Q01DX001 (ip), vehicle: saline with Tween-80): 95 % of control
T/C (dose: 200.0 mg/kg/injection, schedule: Q01DX001 (ip), vehicle: saline with Tween-80): 100 % of control
T/C (dose: 400.0 mg/kg/injection, schedule: Q01DX001 (ip), vehicle: saline with Tween-80): 92 % of control

COc1ccc(C(=O)OCc2ccccc2CN2CCCC2)cc1
T/C [1]: 102 % of control
T/C [2]: 98 % of control

c1ccc(Cn2ccnn2)cc1
T/C (dose: 50.0 mg/kg/injection, schedule: Q01DX009 (ip), vehicle: Klucel (hydroxypropylcellulose) (HPC)): 96 % of control
T/C [3]: 92 % of control
T/C [4]: 115 % of control

CCOC(=O)C(OCc1ccccc1)(C(=O)OCC)C(C)C
T/C [5]: 97 % of control
T/C [6]: 96 % of control
T/C [7]: 101 % of control
T/C [8]: 102 % of control
T/C [9]: 106 % of control
T/C [10]: 108 % of control

CCC(C)(C)C(=O)O
T/C (dose: 50.0 mg/kg/injection, schedule: Q01DX009 (ip), vehicle: saline with Tween-80): 104 % of control
T/C (dose: 100.0 mg/kg/injection, schedule: Q01DX009 (ip), vehicle: saline with Tween-80): 98 % of control
T/C (dose: 200.0 mg/kg/injection, schedule: Q01DX009 (ip), vehicle: saline with Tween-80): 98 % of control

CCC[As](=O)(O)Cc1ccccc1C
T/C (dose: 0.78 mg/kg/injection, schedule: Q01DX009 (ip), vehicle: saline with Tween-80): 95 % of control
T/C (dose: 1.56 mg/kg/injection, schedule: Q01DX009 (ip), vehicle: saline with Tween-80): 97 % of control
T/C (dose: 1.56 mg/kg/injection, schedule: Q04DX003 (ip), vehicle: saline with Tween-80): 93 % of control
T/C (dose: 3.12 mg/kg/injection, schedule: Q01DX009 (ip), vehicle: saline with Tween-80): 97 % of control
T/C (dose: 3.12 mg/kg/injection, schedule: Q04DX002 (ip), vehicle: saline with Tween-80): 103 % of control
T/C (dose: 3.12 mg/kg/injection, schedule: Q04DX003 (ip), vehicle: saline with Tween-80): 97 % of control
T/C (dose: 6.25 mg/kg/injection, schedule: Q01DX001 (ip), vehicle: saline with Tween-80): 106 % of control
T/C (dose: 6.25 mg/kg/injection, schedule: Q01DX009 (ip), vehicle: saline with Tween-80): 101 % of control and 103 % of control
T/C (dose: 6.25 mg/kg/injection, schedule: Q04DX003 (ip), vehicle: saline with Tween-80): 95 % of control
T/C (dose: 12.5 mg/kg/injection, schedule: Q01DX001 (ip), vehicle: saline with Tween-80): 109 % of control
T/C (dose: 12.5 mg/kg/injection, schedule: Q04DX002 (ip), vehicle: saline with Tween-80): 90 % of control
T/C (dose: 12.5 mg/kg/injection, schedule: Q04DX003 (ip), vehicle: saline with Tween-80): 103 % of control

C[n+]1ccc(/C=C/c2ccnc3c(O)cccc23)c2ccccc21
T/C (dose: 15.0 mg/kg/injection, schedule: Q01DX001 (ip), vehicle: saline): 112 % of control

Cc1ccc(NC(=O)c2cc([N+](=O)[O-])cc([N+](=O)[O-])c2)c(C)c1
T/C [11]: 94 % of control
T/C [12]: 94 % of control
T/C [13]: 91 % of control

NNC(=O)c1ccc(-c2ccc[nH]2)[nH]1
T/C (dose: 75.0 mg/kg/injection, schedule: Q01DX001 (ip), vehicle: saline): 108 % of control
T/C (dose: 150.0 mg/kg/injection, schedule: Q01DX001 (ip), vehicle: saline): 92 % of control

Nc1ncc(N)c(N)n1
T/C (dose: 21.0 mg/kg/injection, schedule: Q01DX Z (ip), vehicle: saline): 101 % of control
T/C (dose: 25.0 mg/kg/injection, schedule: Q01DX Z (ip), vehicle: carboxymethylcellulose (CMC)): 109 % of control
T/C (dose: 31.0 mg/kg/injection, schedule: Q01DX Z (ip), vehicle: saline): 106 % of control
T/C (dose: 47.0 mg/kg/injection, schedule: Q01DX Z (ip), vehicle: saline): 121 % of control
T/C [14]: 106 % of control
T/C [15]: 103 % of control
T/C [6]: 112 % of control
T/C (dose: 117.0 mg/kg/injection, schedule: Q01DX009 (ip), vehicle: saline with Tween-80): 116 % of control
T/C (dose: 125.0 mg/kg/injection, schedule: Q01DX001 (ip), vehicle: carboxymethylcellulose (CMC)): 101 % of control and 118 % of control
T/C (dose: 125.0 mg/kg/injection, schedule: Q## X001 (ip), vehicle: carboxymethylcellulose (CMC)): 110 % of control
T/C [16]: 103 % of control
T/C [8]: 117 % of control
T/C (dose: 240.0 mg/kg/injection, schedule: Q04DX003 (ip), vehicle: saline): 111 % of control
T/C (dose: 250.0 mg/kg/injection, schedule: Q01DX001 (ip), vehicle: carboxymethylcellulose (CMC)): 102 % of control and 108 % of control
T/C (dose: 250.0 mg/kg/injection, schedule: Q## X001 (ip), vehicle: carboxymethylcellulose (CMC)): 111 % of control
T/C (dose: 360.0 mg/kg/injection, schedule: Q01DX Z (ip), vehicle: carboxymethylcellulose (CMC)): 159 % of control
T/C (dose: 360.0 mg/kg/injection, schedule: Q04DX003 (ip), vehicle: saline): 108 % of control
T/C [17]: 97 % of control
T/C [10]: 118 % of control
T/C (dose: 500.0 mg/kg/injection, schedule: Q01DX001 (ip), vehicle: carboxymethylcellulose (CMC)): 98 % of control and 117 % of control
T/C (dose: 500.0 mg/kg/injection, schedule: Q01DX Z (ip), vehicle: carboxymethylcellulose (CMC)): 160 % of control
T/C (dose: 500.0 mg/kg/injection, schedule: Q## X001 (ip), vehicle: carboxymethylcellulose (CMC)): 105 % of control
T/C (dose: 810.0 mg/kg/injection, schedule: Q01DX Z (ip), vehicle: saline): 86 % of control
T/C (dose: 1000.0 mg/kg/injection, schedule: Q01DX001 (ip), vehicle: carboxymethylcellulose (CMC)): 102 % of control and 112 % of control
T/C (dose: 1000.0 mg/kg/injection, schedule: Q## X001 (ip), vehicle: carboxymethylcellulose (CMC)): 98 % of control

COc1cccc(-n2cc(C#N)c3c(C)cc(C)nc32)c1
T/C [15]: 87 % of control
T/C [16]: 91 % of control
T/C [17]: 87 % of control

Oc1ccccc1-n1c(-c2ccccc2)ccc1-c1ccccc1
T/C [14]: 90 % of control
T/C [15]: 98 % of control
T/C [16]: 102 % of control
T/C [17]: 98 % of control

COc1cc2nc3cc([N+](=O)[O-])ccc3c(Cl)c2cc1OC
T/C [3]: 96 % of control
T/C [18]: 97 % of control
T/C [4]: 88 % of control
T/C [19]: 98 % of control
T/C [20]: 103 % of control

COc1ccc([N+](=O)[O-])cc1NC(=O)N1CCCCC1C (stereo not drawn)
T/C [1]: 101 % of control
T/C [3]: 98 % of control and 102 % of control
T/C [11]: 97 % of control and 103 % of control
T/C [18]: 106 % of control
T/C [2]: 102 % of control
T/C [4]: 98 % of control and 106 % of control
T/C [12]: 94 % of control and 105 % of control
T/C [19]: 99 % of control
T/C (dose: 400.0 mg/kg/injection, schedule: Q01DX001 (ip), vehicle: Klucel (hydroxypropylcellulose) (HPC)): 96 % of control
T/C (dose: 400.0 mg/kg/injection, schedule: Q01DX009 (ip), vehicle: Klucel (hydroxypropylcellulose) (HPC)): 95 % of control and 96 % of control
T/C [13]: 94 % of control and 110 % of control
T/C [20]: 91 % of control

C=C(C(=C)C(=O)O)C(=O)O
T/C [15]: 101 % of control
T/C [5]: 98 % of control
T/C [16]: 101 % of control
T/C [7]: 107 % of control
T/C [17]: 98 % of control
T/C [9]: 102 % of control

O=C(OC1c2cccc3cccc(c23)C1O)c1ccccc1 (stereo not drawn)
T/C (dose: 100.0 mg/kg/injection, schedule: Q04DX003 (ip), vehicle: other): 95 % of control
T/C (dose: 200.0 mg/kg/injection, schedule: Q04DX003 (ip), vehicle: other): 93 % of control
T/C (dose: 400.0 mg/kg/injection, schedule: Q04DX003 (ip), vehicle: other): 90 % of control
